Assay results reported in US9345669B2, “Biodegradable natural films based on co-products derived from industrial-scale seed-treatment processes” (Sojasun Technologies, priority 2011, dated 2016).

Test: Diffusion of isoflavones from films into an agar plate (gelose) matrix simulating the vaginal mucous membrane
Type: physicochemical
Text: FIG. 1 is a flowchart pertaining to the protocol for evaluating the diffusion of isoflavones made out of films according to the invention towards a matrix simulating the vaginal mucous membrane;
The films according to the present invention meeting the formulations 1 to 6 described here above were associated with an extract obtained from soybeans. The extract is incorporated directly into the mixture so that its content is 4.2% by mass. This extract has the particular feature of being rich in isoflavones and especially having high daidzin and genistin content.
The tests explained here below show the possible use of films according to the invention for making products for administering active ingredients by diffusion of these ingredients from the film towards the vaginal mucous membrane.
In these tests, in order to model the vaginal mucous membrane, an agar plate with an Agar concentration of 30 g/l was used.
The diffusion of daidzin and genistin in the lower agar plate and the upper agar plate was studied with films complying with the formulations 1, 2 and 3 described here above. The results of this study are indicated in the two graphs of FIG. 2.
The influence of the proportion by weight of film-forming agent (sodium caseinate (NaCAS)) in films according to the invention meeting the formulations 5, 2 and 4 described here above on the diffusion of daidzin (a) and genistin (b) has also been studied. The results of this study are indicated in the two graphs shown in FIG. 3 in which the concentration in isoflavones diffused has been related in terms of percentage to the case where the entire active ingredient would have been diffused.
The hydrophobic agent chosen for this study is soy lecithin. A suspension of this compound was also prepared using 5 g of soy lecithin powder mixed with 10 mL of ultra-pure water. The films complying with the formulations 1 and 2 were then coated with this suspension (on the upper and lower faces) and then placed on gelose in order to carry out migration tests.
Two rates of plasticization were examined, corresponding to the formulations 4 and 5 of the films according to the invention described here above.

**Q.** With Daidzin as the substance, how does the “concentration in gelose under equilibrium” value (films of formulations 1, 2 and 3 with 4.2% soybean extract, agar 30 g/l (FIG. 2)) read?
**A.** about 10 μg/mL

**Q.** What about the “isoflavone diffused towards the gelose after 24 hours of contact” value (films of formulations 5, 2 and 4 (varied proportion of sodium caseinate), % of total active ingredient (FIG. 3)) of the same substance?
**A.** more than 90%

**Q.** And the “isoflavone diffused in the gelose after 48 hours of contact, with soy lecithin coating” value (formulations 1 and 2 coated with soy lecithin on upper and lower faces (FIG. 4))?
**A.** 40%

**Q.** And the “isoflavone diffused after 30 hours, plasticization rate 20%” value (plasticization rate 20% glycerol (FIG. 5))?
**A.** 90%

**Q.** What about the “isoflavone diffused after 30 hours, glycerol rate 30% by mass” value (plasticization rate 30% glycerol (FIG. 5)) of the same substance?
**A.** ~100%
